Test results from patent publication US8232289B2, “Spiropiperidine compounds as ORL-1 receptor antagonists” (Eli Lilly and Company, priority 2009, dated 2012).
pKi: −log10 of the molar value.

Key:
[1] = target: 5-HT6 (Homo sapiens, UniProt P50406); test: Radioligand binding selectivity, 5-HT6
Description: Similarly, Ki for the mu, kappa and delta opioids, serotonin, dopamine, adrenergic, mucarinic, and histamine receptors, as well as binding to the norepinephrine transporter, sodium channel, chloride channel, and calcium channel may be determined using membranes expressing the desired receptor/transporter/channels and appropriate corresponding radioligand competitor molecules.

[2] = tested on: 129S6 wild type and nociceptin/ORL1 receptor knockout mice; test: mFST in wild type and ORL-1 knockout mice; type: in vivo
Description: mFST is an established in vivo assay for antidepressant activity (Li et al. J Pharmacol Exp Ther. 319(1):254-9, 2006.). […] The mFST was used to evaluate potential antidepressant-like activity of novel nociceptin/ORL1 antagonists according to previously published methods (Li et al. J Pharmacol Exp Ther. 319(1):254-9, 2006.). Briefly, male NIH-Swiss mice (Harlan Sprague-Dawley, Indianapolis, Ind.) weighing between 25-30 g are used. Group housed animals are removed from the vivarium to the testing area in their own cages and allowed to adapt to the new environment for at least 1 hour before testing. Alternatively, male 129S6 wild type and nociceptin/ORL1 receptor knockout mice were used to confirm dependence of the response to compound was nociceptin/ORL1 receptor dependent. All compounds are prepared in 20% Captisol, 25 mM phosphate buffer, pH 2.0 on the day of use. Mice are placed in a cylinder (diameter: 10 cm; height: 25 cm) filled with 6 cm of water (22-25° C.) for 6 min. The duration of immobility during the last 4 min. of the 6 min. period of the test was scored. A mouse is recorded as immobile when floating motionless or making only those movements necessary to keep its head above water.
Yet further, these effects of reduced immobilization times are not observed when ORL-1 knockout mice, a strain of mice engineered to lack the ORL-1 receptor, are used, showing that the effect is indeed mediated by the ORL-1 receptor.

5-HT6, sequence (P50406 whole entry, species assumed): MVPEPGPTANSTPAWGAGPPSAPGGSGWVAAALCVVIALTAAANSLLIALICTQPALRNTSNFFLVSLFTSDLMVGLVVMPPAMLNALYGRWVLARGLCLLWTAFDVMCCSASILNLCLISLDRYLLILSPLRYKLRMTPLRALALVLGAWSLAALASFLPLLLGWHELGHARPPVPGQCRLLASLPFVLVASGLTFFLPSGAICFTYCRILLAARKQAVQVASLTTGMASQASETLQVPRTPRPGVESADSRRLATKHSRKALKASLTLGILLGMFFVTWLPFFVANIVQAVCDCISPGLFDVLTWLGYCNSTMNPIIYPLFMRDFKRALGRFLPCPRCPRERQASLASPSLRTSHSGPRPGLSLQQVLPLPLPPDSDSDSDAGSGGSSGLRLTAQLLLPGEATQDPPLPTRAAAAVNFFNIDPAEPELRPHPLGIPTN

Row | SMILES | pKi [1] | effect on immobilization time ([2]; ORL-1 knockout mice) | effect on immobilization time ([2]; wild type mice)
1 | O=C(O)C(O)C(O)C(=O)O.OCc1nn(-c2ncccc2F)cc1CN1CCC2(CC1)OCC(F)(F)c1cc(Cl)sc12 [Example 53, [4-[(2-Chloro-4,4-difluoro-spiro[5H-thieno[2,3-c]pyran-7,4′-piperidine]-1′-yl)methyl]-1-(3-fluoro-2-pyridyl)pyrazol-3-yl]methanol (L)-Tartrate] | < 5.23 | – | –
2 | Cc1nn(-c2ncccc2CO)cc1CN1CCC2(CC1)OCC(F)(F)c1cc(Cl)sc12 [Example 62, [2-[4-[(2-Chloro-4,4-difluoro-spiro[5H-thieno[2,3-c]pyran-7,4′-piperidine]-1′-yl)methyl]-3-methyl-pyrazol-1-yl]-3-pyridyl]methanol] | – | no effect | significantly reduce the immobilization time
